Patent US10696693B2, “Fused imidazole derivatives as TGF-beta inhibitors” (Rigel Pharmaceuticals, Inc., priority 2014, dated 2020)
Like-named read-outs stand apart in the source and are kept apart here.

How the values were obtained:
GDF8 = experiment: AlphaScreen SureFire p-SMAD3 (Ser423/425) assay, GDF8-stimulated cells; format: cell-based; conditions: Mus musculus
Summary of the method: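 A SureFire AlphaScreen assay measured phosphorylation of endogenous SMAD-3 at Ser423/425 in cell lysates. Cells were treated with three-fold serially diluted compounds in DMSO for about 10 minutes, then stimulated with GDF8. After medium removal, cells were lysed in 1× Lysis Buffer (about 25 μL) with gentle shaking for 5-10 minutes.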

TGF-β = experiment: AlphaScreen SureFire p-SMAD3 (Ser423/425) assay, TGF-β-stimulated cells; format: cell-based; conditions: Mus musculus
Summary of the method: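 The p-SMAD-3 (Ser423/425) SureFire assay measured phosphorylation of endogenous SMAD-3 in cell lysates. Cells were plated overnight in collagen-coated plates, exposed to three-fold serially diluted compounds for about 10 minutes, then stimulated with TGFβ. Lysates (5 μL) received acceptor bead mix for 2 hours, then donor beads for 1½ hours before AlphaScreen reading.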

[1] = MPC-11, read-out: GDF8: inhibition of GDF8 signaling, GDF pSMAD (MPC11), p-SMAD3 (Ser423/425) AlphaScreen in cell lysate, GDF8 stimulation
[2] = MPC-11, read-out: TGF-β: inhibition of TGF-β signaling, TGF-β pSMAD (MPC-11), p-SMAD3 (Ser423/425) AlphaScreen in cell lysate, TGF-β stimulation
[3] = MPC-11, p-SMAD3 (Ser423/425) AlphaScreen in cell lysate, MPC11, GDF8 stimulation, read-out: GDF8: inhibition of GDF8 signaling, GDF pSMAD (MPC11)
[4] = p-SMAD3 (Ser423/425) AlphaScreen in cell lysate, MPC-11, TGF-β stimulation, read-out: TGF-β: inhibition of TGF-β signaling, TGF-β pSMAD (MPC-11)

Structure (SMILES) | IC50 (GDF8; [3]) [nM] | IC50 (TGF-β; [4]) [nM] | IC50 (GDF8; [1]) [nM] | IC50 (TGF-β; [2]) [nM]
OCC1CCC2(CC1)Cc1nc(-c3ccc(F)cc3)c(-c3ccc4nccnc4c3)n1C2 (stereo not shown) [Compound 336, (2′-(4-fluorophenyl)-3′-(quinoxalin-6-yl)-5′H,7′H-spiro[cyclohexane-1,6′-pyrrolo[1,2-a]imidazol]-4-yl)methanol] | – | – | > 1000 | > 1000
Cc1ccc(-c2ccc3nccnc3c2)cc1-c1nc2n(c1-c1ccc3nccnc3c1)CCC2 [Compound 341, 6-(4-methyl-3-(3-(quinoxalin-6-yl)-6,7-dihydro-5H-pyrrolo[1,2-a]imidazol-2-yl)phenyl)quinoxaline] | – | – | > 1000 | > 1000
Clc1ccc(Cl)c(-c2nc3n(c2-c2ccc4ncccc4c2)CCC3)c1 [Compound 343, 6-(2-(2,5-dichlorophenyl)-6,7-dihydro-5H-pyrrolo[1,2-a]imidazol-3-yl)quinoline] | – | – | 100 to 1000 | 100 to 1000
Nc1ncnc2ccc(-c3c(-c4cc(F)cc(F)c4F)nc4n3CCC4)cc12 [Compound 344, 6-(2-(2,3,5-trifluorophenyl)-6,7-dihydro-5H-pyrrolo[1,2-a]imidazol-3-yl)quinazolin-4-amine] | 100 to 1000 | 100 to 1000 | – | –
Nc1ncnc2ccc(-c3c(-c4cc(F)c(F)cc4F)nc4n3CCC4)cc12 [Compound 345, 6-(2-(2,4,5-trifluorophenyl)-6,7-dihydro-5H-pyrrolo[1,2-a]imidazol-3-yl)quinazolin-4-amine] | < 50 | 50 to 100 | – | –
Clc1ccc(Cl)c(-c2nc3n(c2-c2ccc4ncsc4c2)CCC3)c1 [Compound 349, 6-(2-(2,5-dichlorophenyl)-6,7-dihydro-5H-pyrrolo[1,2-a]imidazol-3-yl)benzo[d]thiazole] | – | – | < 50 | 50 to 100
Cc1ccc(Cl)cc1-c1nc2n(c1-c1ccc3ncsc3c1)CCC2 [Compound 350, 6-(2-(5-chloro-2-methylphenyl)-6,7-dihydro-5H-pyrrolo[1,2-a]imidazol-3-yl)benzo[d]thiazole] | – | – | 50 to 100 | 100 to 1000
COc1ccc(-c2nc3n(c2-c2ccc4nccnc4c2)CCC3)cc1 [Compound 351, 6-(2-(4-methoxyphenyl)-6,7-dihydro-5H-pyrrolo[1,2-a]imidazol-3-yl)quinoxaline] | – | – | > 1000 | > 1000
COc1ccc(-c2nc3n(c2-c2ccc4ncccc4c2)CCC3)cc1 [Compound 352, 6-(2-(4-methoxyphenyl)-6,7-dihydro-5H-pyrrolo[1,2-a]imidazol-3-yl)quinoline] | – | – | > 1000 | > 1000
COCCOc1cnc2ccc(-c3c(-c4cc(F)c(F)cc4F)nc4n3CCC4)cc2n1 [Compound 353, 2-(2-methoxyethoxy)-7-(2-(2,4,5-trifluorophenyl)-6,7-dihydro-5H-pyrrolo[1,2-a]imidazol-3-yl)quinoxaline] | 100 to 1000 | 100 to 1000 | – | –
COCCOc1cnc2ccc(-c3c(-c4cc(Cl)ccc4F)nc4n3CCC4)cc2n1 [Compound 354, 7-(2-(5-chloro-2-fluorophenyl)-6,7-dihydro-5H-pyrrolo[1,2-a]imidazol-3-yl)-2-(2-methoxyethoxy)quinoxaline] | – | – | 50 to 100 | < 50
COCCOc1cnc2ccc(-c3c(-c4ccc(F)c(Cl)c4)nc4n3CCC4)cc2n1 [Compound 355, 7-(2-(3-chloro-4-fluorophenyl)-6,7-dihydro-5H-pyrrolo[1,2-a]imidazol-3-yl)-2-(2-methoxyethoxy)quinoxaline] | – | – | 100 to 1000 | 100 to 1000
COCCOc1cnc2ccc(-c3c(-c4cc(C)ccc4F)nc4n3CCC4)cc2n1 [Compound 358, 7-(2-(2-fluoro-5-methylphenyl)-6,7-dihydro-5H-pyrrolo[1,2-a]imidazol-3-yl)-2-(2-methoxyethoxy)quinoxaline] | – | – | 100 to 1000 | 100 to 1000
Fc1cc(F)c(F)c(-c2nc3n(c2-c2ccc4ncc(-n5ccnc5)nc4c2)CCC3)c1 [Compound 359, 2-(1H-imidazol-1-yl)-7-(2-(2,3,5-trifluorophenyl)-6,7-dihydro-5H-pyrrolo[1,2-a]imidazol-3-yl)quinoxaline] | – | – | 50 to 100 | 100 to 1000
Fc1ccc(Cl)cc1-c1nc2n(c1-c1ccc3ncc(-n4ccnc4)nc3c1)CCC2 [Compound 360, 7-(2-(5-chloro-2-fluorophenyl)-6,7-dihydro-5H-pyrrolo[1,2-a]imidazol-3-yl)-2-(1H-imidazol-1-yl)quinoxaline] | – | – | < 50 | < 50
CN(C)CCOc1cnc2ccc(-c3c(-c4cc(F)cc(F)c4F)nc4n3CCC4)cc2n1 [Compound 361, N,N-dimethyl-2-((7-(2-(2,3,5-trifluorophenyl)-6,7-dihydro-5H-pyrrolo[1,2-a]imidazol-3-yl)quinoxalin-2-yl)oxy)ethan-1-amine] | – | – | > 1000 | > 1000
CN(C)CCOc1cnc2ccc(-c3c(-c4cc(F)c(F)cc4F)nc4n3CCC4)cc2n1 [Compound 362, N,N-dimethyl-2-((7-(2-(2,4,5-trifluorophenyl)-6,7-dihydro-5H-pyrrolo[1,2-a]imidazol-3-yl)quinoxalin-2-yl)oxy)ethan-1-amine] | – | – | 100 to 1000 | 100 to 1000
c1ccc(C2=C(c3ccc4[nH]ncc4c3)C3CCCC3=N2)nc1 (stereo not shown) [Compound 365, 5-(2-(pyridin-2-yl)-3a,4,5,6-tetrahydrocyclopenta[b]pyrrol-3-yl)-1H-indazole] | < 50 | < 50 | – | –
c1ccc(C2=C(c3ccc4cn[nH]c4c3)C3CCCC3=N2)nc1 (stereo not shown) [Compound 366, 6-(2-(pyridin-2-yl)-3a,4,5,6-tetrahydrocyclopenta[b]pyrrol-3-yl)-1H-indazole] | < 50 | 50 to 100 | – | –
c1ccc(-c2nc3n(c2-c2ccc4ncsc4c2)CCC3)nc1 [Compound 367, 6-(2-(pyridin-2-yl)-6,7-dihydro-5H-pyrrolo[1,2-a]imidazol-3-yl)benzo[d]thiazole] | < 50 | < 50 | – | –

Now from value to compound, other results behind:

IC50 (GDF8; [3]) [nM] | IC50 (TGF-β; [4]) [nM] | Structure (SMILES) | IC50 (GDF8; [1]) [nM] | IC50 (TGF-β; [2]) [nM]
< 50 | < 50 | Fc1ccc(Cl)cc1-c1nc2n(c1-c1ccc3nccnc3c1)CCC2 [Compound 337, 6-(2-(5-chloro-2-fluoropheny)-6,7-dihydro-5H-pyrrolo[1,2-a]imidazol-3-yl)quinoxaline] | – | –
< 50 | < 50 | Fc1ccc(Cl)cc1-c1nc2n(c1-c1ccc3ncccc3c1)CCC2 [Compound 338, 6-(2-(5-chloro-2-fluoropheny)-6,7-dihydro-5H-pyrrolo[1,2-a]imidazol-3-yl)quinoline] | – | –
< 50 | < 50 | Fc1ccc(Cl)cc1-c1nc2n(c1-c1ccc3ncsc3c1)CCC2 [Compound 339, 6-(2-(5-chloro-2-fluoropheny)-6,7-dihydro-5H-pyrrolo[1,2-a]imidazol-3-yl)benzo[d]thiazole] | – | –
100 to 1000 | 100 to 1000 | Cc1ccc(Cl)cc1-c1nc2n(c1-c1ccc3ncccc3c1)CCC2 [Compound 340, 6-(2-(5-chloro-2-methylpheny)-6,7-dihydro-5H-pyrrolo[1,2-a]imidazol-3-yl)quinoline] | – | –
100 to 1000 | 100 to 1000 | Cc1ccc(Cl)cc1-c1nc2n(c1-c1ccc3nccnc3c1)CCC2 [Compound 342, 6-(2-(5-chloro-2-methylpheny)-6,7-dihydro-5H-pyrrolo[1,2-a]imidazol-3-yl)quinoxaline] | – | –
< 50 | < 50 | Nc1ncnc2ccc(-c3c(-c4cc(Cl)ccc4F)nc4n3CCC4)cc12 [Compound 346, 6-(2-(5-chloro-2-fluorophenyl)-6,7-dihydro-5H-pyrrolo[1,2-a]imidazol-3-yl)quinazolin-4-amine] | – | –
50 to 100 | 50 to 100 | Nc1ncnc2ccc(-c3c(-c4ccc(F)c(Cl)c4)nc4n3CCC4)cc12 [Compound 347, 6-(2-(3-chloro-4-fluorophenyl)-6,7-dihydro-5H-pyrrolo[1,2-a]imidazol-3-yl)quinazolin-4-amine] | – | –
< 50 | 50 to 100 | Clc1ccc(Cl)c(-c2nc3n(c2-c2ccc4nccnc4c2)CCC3)c1 [Compound 348, 6-(2-(2,5-dichloropheny)-6,7-dihydro-5H-pyrrolo[1,2-a]imidazol-3-yl)quinoxaline] | – | –
50 to 100 | 100 to 1000 | Cc1ccc(F)c(-c2nc3n(c2-c2ccc4ncccc4c2)CCC3)c1 [Compound 356, 6-(2-(2-fluoro-5-methylphenyl)-6,7-dihydro-5H-pyrrolo[1,2-a]imidazol-3-yl)quinoline] | – | –
< 50 | < 50 | Cc1ccc(F)c(-c2nc3n(c2-c2ccc4nccnc4c2)CCC3)c1 [Compound 357, 6-(2-(2-fluoro-5-methylphenyl)-6,7-dihydro-5H-pyrrolo[1,2-a]imidazol-3-yl)quinoxaline] | – | –
< 50 | < 50 | CN(C)CCOc1cnc2ccc(-c3c(-c4cc(Cl)ccc4F)nc4n3CCC4)cc2n1 [Compound 363, 2-((7-(2-(5-chloro-2-fluorophenyl)-6,7-dihydro-5H-pyrrolo[1,2-a]imidazol-3-yl)quinoxalin-2-yl)oxy)-N,N-dimethylethan-1-amine] | – | –
50 to 100 | 50 to 100 | c1ccc(-c2nc3n(c2-c2ccc4nccnc4c2)CCC3)nc1 [Compound 368, 6-(2-(pyridin-2-yl)-6,7-dihydro-5H-pyrrolo[1,2-a]imidazol-3-yl)quinoxaline] | – | –
